Assay results from PubChem BioAssay (NCI).
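The compound was tested at five concentrations on cells cultured in 96-well plates, with a 48-hour exposure period. Definition used: TGI = concentration required for complete inhibition of growth.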

Legend:
Experiment in all cases: NCI anticancer screen, dose series, 48 h
DLD-1 colon = tested on: DLD-1 colon
DMS 114 small cell lung = tested on: DMS 114 small cell lung
DMS 273 small cell lung = tested on: DMS 273 small cell lung
HOP-18 NSCLC = tested on: HOP-18 NSCLC
KM20L2 colon = tested on: KM20L2 colon
LXFL 529 NSCLC = tested on: LXFL 529 NSCLC
M19-MEL melanoma = tested on: M19-MEL melanoma
XF 498 CNS = tested on: XF 498 CNS
RXF-631 renal = tested on: RXF-631 renal
SNB-78 CNS = tested on: SNB-78 CNS

Compound | TGI (DLD-1 colon) | TGI (DMS 114 small cell lung) | TGI (DMS 273 small cell lung) | TGI (HOP-18 NSCLC) | TGI (KM20L2 colon) | TGI (LXFL 529 NSCLC) | TGI (M19-MEL melanoma) | TGI (XF 498 CNS) | TGI (RXF-631 renal) | TGI (SNB-78 CNS)
COc1ccc(OC)c(/C=C2\CCc3ccccc3C2=O)c1 | 22.8 µM | 5.21 µM | 12.8 µM | 57.1 µM | 9.62 µM | 31.8 µM | 23.5 µM | 11 µM |  | 
C(=C\C(Sc1ccccc1)c1ccccc1)/NNC1=NC(c2ccccc2)C(c2ccccc2)=NN1 (centres undefined) | 56 µM | > 100 µM | > 100 µM | > 100 µM | > 100 µM |  | > 100 µM | > 100 µM | > 100 µM | > 100 µM
CC(C)OC/N=C(/N)NC#N | > 100 µM | > 100 µM | > 100 µM | > 100 µM | > 100 µM | > 100 µM | > 100 µM | > 100 µM | > 100 µM | > 100 µM
CC1=NN2C(c3ccc([N+](=O)[O-])cc3)=CSC2=NC(C)(C)C1 | > 100 µM | > 100 µM | > 100 µM | > 100 µM | > 100 µM | > 100 µM | > 100 µM | > 100 µM | > 100 µM | > 100 µM
COc1cc([C@@H]2c3cc4c(cc3[C@@H](OC(=O)c3cccc(N)c3)C3COC(=O)[C@@H]32)OCO4)cc(OC)c1O (some centres undefined) | > 100 µM |  | > 100 µM |  | 26.8 µM | 51 µM | > 100 µM | 35 µM |  | > 100 µM
COc1cc2c(oc(=O)c3cc4cc([Si](C)(C)C)oc4c(OC)c32)c2cccc(O)c12 | > 100 µM | > 100 µM | > 100 µM | > 100 µM | > 100 µM | > 100 µM | > 100 µM | > 100 µM |  | > 100 µM
C=CCCCN1CCCC(C)C1=S (centres undefined) | > 100 µM | > 100 µM | > 100 µM | > 100 µM | > 100 µM |  | > 100 µM | > 100 µM | > 100 µM | 
CC(=O)c1ccccc1NC(=O)C(=O)C(C(=O)c1ccccc1-c1ccccc1)C1OC(=O)c2ccccc21 (centres undefined) | 48 µM |  | > 100 µM | 36.1 µM | 53 µM | 31.3 µM | 48.2 µM | 24.3 µM | > 100 µM | > 100 µM
Cn1c2ccccc2c2ccc3c(c21)C(=O)C(c1ccccc1)=CC3=O | 64.6 µM | 43.2 µM | 84 µM | 5.51 µM |  | 33.5 µM | 59.9 µM |  |  | > 100 µM
CC(=O)NNc1nc(C)c(C(=O)NNC(=O)C(=O)Nc2c([N+](=O)[O-])ccc(C)c2C)s1 | > 100 µM | > 100 µM | > 100 µM |  | > 100 µM | > 100 µM | > 100 µM | > 100 µM |  | > 100 µM
Nc1nc(N)c2ncn(CCOC(c3ccccc3)P(=O)(O)O)c2n1 (centres undefined) | > 100 µM | > 100 µM | > 100 µM |  | > 100 µM |  | > 100 µM | > 100 µM |  | > 100 µM
COCN(C)c1nc(N(C)C)nc(N(C)C)n1 | > 100 µM | > 100 µM | > 100 µM | > 100 µM | > 100 µM | > 100 µM | > 100 µM |  |  | > 100 µM
CC1(C)c2ccccc2N2O[C@@H]3C(=O)N(c4ccccc4)C(=O)[C@@H]3C21c1ccccc1 (some centres undefined) | > 100 µM | > 100 µM | > 100 µM |  |  | > 100 µM | > 100 µM | > 100 µM |  | > 100 µM
COC(=O)c1c(-c2cc(OC)c(OC)c(OC)c2)oc2ccccc2c1=O | > 100 µM |  | > 100 µM | > 100 µM | > 100 µM | > 100 µM | > 100 µM |  |  | > 100 µM
CCN(CC)C(=S)SCC(=O)Nc1nc2c(s1)CCCC2 | > 100 µM | > 100 µM | > 100 µM |  | > 100 µM | > 100 µM | > 100 µM | > 100 µM |  | > 100 µM
CC1(C)Cc2c(oc3ncnc(N)c23)CS1 | > 100 µM | > 100 µM | > 100 µM |  | > 100 µM | > 100 µM | > 100 µM | > 100 µM | > 100 µM | > 100 µM
COc1ccc(OC)c(NC(=O)C(=O)CC(=O)c2sc(-n3nc(-c4ccccc4)cc3-c3ccccc3)nc2C)c1 | > 100 µM | > 100 µM | > 100 µM |  | > 100 µM | > 100 µM | > 100 µM |  | > 100 µM | > 100 µM
COC(=O)CC(C(C(=O)OC)C(=O)OC)N1C(=O)OC(c2ccccc2)C1c1ccccc1 (centres undefined) | > 100 µM | > 100 µM | > 100 µM | > 100 µM | > 100 µM | > 100 µM | > 100 µM |  |  | 
N#Cc1ccc(Oc2ccccc2)cc1C#N | > 100 µM | 59.1 µM | 34.5 µM | > 100 µM | > 100 µM | > 100 µM | > 100 µM | > 100 µM |  | > 100 µM
C[n+]1c2ccccc2c(CNCC(=O)O)c2ccccc21 | 2 µM | 4.83 µM | 2.74 µM | 22.6 µM | 2.44 µM | 3.15 µM | 16.5 µM | 3.85 µM |  | 44.3 µM
